Laboratory results: patent publication US20250346597A1, “CONDENSED HETEROCYCLIC COMPOUNDS AS INHIBITOR OF DIACYLGLYCEROL KINASES” (BEONE MEDICINES I GMBH, priority 2023, published 2025)

Legend:
DGKζ = DGKζ (Homo sapiens (Human), UniProt Q13574); assay: Biochemical DGK IC50 assay (ADP-Glo, lipid micelle substrate), DGKζ; conditions: full length DGKζ 0.5 nM, ATP 140 μM, DAG 80 μM
Procedure, shortened: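 ADP-Glo luminescence measured ADP made in a 1 h room-temperature reaction. The enzyme was Sf9-expressed, purified full-length human DGKζ, and the substrate was DAG/PS micelles. Assay buffer held 50 mM HEPES, 10 mM MgCl2, 0.01 mM CaCl2, 0.1 mM Na3VO4 and 0.01% BSA. IC50 was derived from activity inhibition over a compound concentration series.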

DGKα = DGKα (Homo sapiens (Human), UniProt P23743); assay: Biochemical DGK IC50 assay (ADP-Glo, lipid micelle substrate), DGKα; conditions: full length DGKα […], ATP 140 μM, DAG 80 μM; also: full length DGKα 7.5 nM
Procedure, shortened: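 Luminescent ADP-Glo detection followed a 1 h room-temperature reaction of full-length DGKα on DAG/PS micelles, in HEPES buffer with 10 mM MgCl2, 0.01 mM CaCl2, 0.1 mM Na3VO4, BSA and Tween-20. IC50 derived from inhibition across increasing compound concentrations.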

Sequence of DGKα (P23743 whole entry): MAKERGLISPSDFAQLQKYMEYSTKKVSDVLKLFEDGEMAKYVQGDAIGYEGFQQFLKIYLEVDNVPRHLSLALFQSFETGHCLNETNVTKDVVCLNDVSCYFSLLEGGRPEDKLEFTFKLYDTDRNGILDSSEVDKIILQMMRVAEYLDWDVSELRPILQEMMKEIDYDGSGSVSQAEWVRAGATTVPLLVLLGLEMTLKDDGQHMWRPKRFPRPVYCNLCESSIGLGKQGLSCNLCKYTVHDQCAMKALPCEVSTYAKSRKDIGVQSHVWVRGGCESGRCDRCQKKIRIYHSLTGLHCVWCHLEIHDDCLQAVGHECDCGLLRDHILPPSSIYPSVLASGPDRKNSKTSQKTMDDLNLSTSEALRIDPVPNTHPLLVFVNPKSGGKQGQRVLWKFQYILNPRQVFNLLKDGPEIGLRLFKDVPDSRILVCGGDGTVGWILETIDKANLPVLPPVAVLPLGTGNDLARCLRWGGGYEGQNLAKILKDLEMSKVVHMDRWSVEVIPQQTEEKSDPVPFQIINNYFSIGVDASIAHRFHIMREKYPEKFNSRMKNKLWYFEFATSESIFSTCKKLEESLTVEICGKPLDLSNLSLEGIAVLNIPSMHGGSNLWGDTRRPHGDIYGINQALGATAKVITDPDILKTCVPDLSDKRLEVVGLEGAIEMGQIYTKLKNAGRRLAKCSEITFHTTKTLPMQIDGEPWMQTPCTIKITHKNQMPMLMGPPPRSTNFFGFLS
Sequence of DGKζ (Q13574 other isoform, or with tags, fused parts or gaps): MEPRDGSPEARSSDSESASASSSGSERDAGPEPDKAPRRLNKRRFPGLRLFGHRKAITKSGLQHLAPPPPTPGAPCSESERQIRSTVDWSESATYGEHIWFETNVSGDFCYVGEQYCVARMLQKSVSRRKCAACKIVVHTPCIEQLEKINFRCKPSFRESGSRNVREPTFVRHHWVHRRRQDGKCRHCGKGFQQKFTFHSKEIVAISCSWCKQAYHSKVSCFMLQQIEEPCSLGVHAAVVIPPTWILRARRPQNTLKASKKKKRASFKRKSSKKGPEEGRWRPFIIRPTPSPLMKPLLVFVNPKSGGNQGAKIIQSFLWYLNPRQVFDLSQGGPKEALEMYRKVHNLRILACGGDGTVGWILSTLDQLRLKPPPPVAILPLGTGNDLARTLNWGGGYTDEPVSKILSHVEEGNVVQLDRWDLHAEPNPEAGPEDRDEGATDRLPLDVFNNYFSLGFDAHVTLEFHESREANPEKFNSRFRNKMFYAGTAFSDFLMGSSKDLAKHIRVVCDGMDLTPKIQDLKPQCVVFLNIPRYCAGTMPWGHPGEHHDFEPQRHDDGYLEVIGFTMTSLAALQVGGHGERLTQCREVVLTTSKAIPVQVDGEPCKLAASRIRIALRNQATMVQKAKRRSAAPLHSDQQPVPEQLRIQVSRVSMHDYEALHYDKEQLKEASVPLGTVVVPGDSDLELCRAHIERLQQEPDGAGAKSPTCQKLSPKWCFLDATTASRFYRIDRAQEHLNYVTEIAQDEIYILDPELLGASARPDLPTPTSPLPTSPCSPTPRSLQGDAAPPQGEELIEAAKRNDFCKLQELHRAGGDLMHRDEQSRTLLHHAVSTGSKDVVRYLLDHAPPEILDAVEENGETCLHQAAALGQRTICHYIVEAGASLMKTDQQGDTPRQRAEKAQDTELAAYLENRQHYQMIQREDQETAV

SMILES: CC[C@@H]1CN(c2cc(=O)n(C)c3cn(CC#N)nc23)[C@@H](C)CN1C(C)c1ccc2ccsc2n1 (some centres unmarked) [Compound A130]
- IC50 (DGKζ): 46 nM
- IC50 (DGKα): 215 nM

SMILES: CC[C@@H]1CN(c2cc(=O)n(C)c3cn(CC#N)nc23)[C@@H](C)CN1C(C)c1ccc2cc(C)sc2n1 (stereo partly drawn) [Compound A131, 2-(7-((2S,5R)-5-ethyl-2-methyl-4-(1-(2-methylthieno[2,3-b]pyridin-6-yl)ethyl)piperazin-1-yl)-4-methyl-5-oxo-4,5-dihydro-2H-pyrazolo[4,3-b]pyridin-2-yl)acetonitrile]
- IC50 (DGKζ): 26 nM
- IC50 (DGKα): 246 nM

SMILES: CC[C@@H]1CN(c2cc(=O)n(C)c3cn(CC#N)nc23)[C@@H](C)CN1C(C)c1ccc2cc(F)sc2n1 (stereo partly drawn) [Compound A132, 2-(7-((2S,5R)-5-ethyl-4-(1-(2-fluorothieno[2,3-b]pyridin-6-yl)ethyl)-2-methylpiperazin-1-yl)-4-methyl-5-oxo-4,5-dihydro-2H-pyrazolo[4,3-b]pyridin-2-yl)acetonitrile]
- IC50 (DGKζ): 139 nM
- IC50 (DGKα): 63 nM

SMILES: CC#CCn1cc2c(n1)c(N1C[C@@H](CC)N(C(C)c3ccc4nc(C)sc4n3)C[C@@H]1CC)cc(=O)n2C (some centres unmarked) [Compound A137]
- IC50 (DGKζ): 118 nM
- IC50 (DGKα): 13 nM

SMILES: Cc1cc2nc(C(C)N3C[C@H](C)N(c4cc(=O)n(C)c5cn(CC#N)nc45)C[C@H]3C)ccc2s1 (stereo partly drawn) [Compound A155, 2-(7-((2S,5R)-2,5-dimethyl-4-(1-(2-methylthieno[3,2-b]pyridin-5-yl)ethyl)piperazin-1-yl)-4-methyl-5-oxo-4,5-dihydro-2H-pyrazolo[4,3-b]pyridin-2-yl)acetonitrile]
- IC50 (DGKζ): 74 nM
- IC50 (DGKα): 378 nM

SMILES: CC[C@H]1CN(C(C)c2ccn3nc(Cl)cc3n2)[C@H](CC)CN1c1cc(=O)n(C)c2cn(CC#N)nc12 (stereo partly drawn) [Compound A175, 2-(7-((2S,5R)-4-(1-(2-chloropyrazolo[1,5-a]pyrimidin-5-yl)ethyl)-2,5-diethylpiperazin-1-yl)-4-methyl-5-oxo-4,5-dihydro-2H-pyrazolo[4,3-b]pyridin-2-yl)acetonitrile]
- IC50 (DGKζ): 79 nM
- IC50 (DGKα): 32 nM

SMILES: CC[C@H]1CN(C(C)c2cn3ncccc3n2)[C@H](CC)CN1c1cc(=O)n(C)c2cn(CC#N)nc12 (stereo partly drawn) [Compound A180, 2-(7-((2S,5R)-2,5-diethyl-4-(1-(imidazo[1,2-b]pyridazin-2-yl)ethyl)piperazin-1-yl)-4-methyl-5-oxo-4,5-dihydro-2H-pyrazolo[4,3-b]pyridin-2-yl)acetonitrile]
- IC50 (DGKζ): 1180 nM
- IC50 (DGKα): 2450 nM

SMILES: CC[C@H]1CN(C(C)c2nc3cccnc3s2)[C@H](CC)CN1c1cc(=O)n(C)c2cn(CC#N)nc12 (stereo partly drawn) [Compound A181, 2-(7-((2S,5R)-2,5-diethyl-4-(1-(thiazolo[5,4-b]pyridin-2-yl)ethyl)piperazin-1-yl)-4-methyl-5-oxo-4,5-dihydro-2H-pyrazolo[4,3-b]pyridin-2-yl)acetonitrile]
- IC50 (DGKζ): 178 nM
- IC50 (DGKα): 470 nM

SMILES: CC[C@H]1CN(C(C)c2ccc(CN3CCC(F)(F)CC3)cn2)[C@H](CC)CN1c1cc(=O)n(C)c2cn(CC#N)nc12 (stereo partly drawn) [Compound A182, 2-(7-((2S,5R)-4-(1-(5-((4,4-difluoropiperidin-1-yl)methyl)pyridin-2-yl)ethyl)-2,5-diethylpiperazin-1-yl)-4-methyl-5-oxo-4,5-dihydro-2H-pyrazolo[4,3-b]pyridin-2-yl)acetonitrile]
- IC50 (DGKζ): 281 nM
- IC50 (DGKα): 54 nM

SMILES: CC[C@H]1CN(C(C)c2ccc(CC3COC3)cc2)[C@H](CC)CN1c1cc(=O)n(C)c2cn(CC#N)nc12 (stereo partly drawn) [Compound A183, 2-(7-((2S,5R)-2,5-diethyl-4-(1-(4-(oxetan-3-ylmethyl)phenyl)ethyl)piperazin-1-yl)-4-methyl-5-oxo-4,5-dihydro-2H-pyrazolo[4,3-b]pyridin-2-yl)acetonitrile]
- IC50 (DGKζ): 517 nM
- IC50 (DGKα): 48.2 nM

SMILES: CC[C@H]1CN(C(C)c2ccc3c(c2)OCO3)[C@H](CC)CN1c1cc(=O)n(C)c2cn(CC#N)nc12 (stereo partly drawn) [Compound A185, 2-(7-((2S,5R)4-(1-(benzo[d][1,3]dioxol-5-yl)ethyl)-2,5-diethylpiperazin-1-yl)-4-methyl-5-oxo-4,5-dihydro-2H-pyrazolo[4,3-b]pyridin-2-yl)acetonitrile]
- IC50 (DGKζ): 66.4 nM
- IC50 (DGKα): 164 nM

SMILES: CC[C@H]1CN(C(C)c2ccc(CC#N)cc2)[C@H](CC)CN1c1cc(=O)n(C)c2cn(CC#N)nc12 (stereo partly drawn) [Compound A190, 2-(4-(1-((2R,5S)-4-(2-(cyanomethyl)-4-methyl-5-oxo-4,5-dihydro-2H-pyrazolo[4,3-b]pyridin-7-yl)-2,5-diethylpiperazin-1-yl)ethyl)phenyl)acetonitrile]
- IC50 (DGKζ): 651 nM
- IC50 (DGKα): 45 nM

SMILES: CC[C@H]1CN(C(C)c2ccc(C#N)cc2)[C@H](CC)CN1c1cc(=O)n(C)c2cn(CC#N)nc12 (stereo partly drawn) [Compound A191, 4-(1-((2R,5S)-4-(2-(cyanomethyl)-4-methyl-5-oxo-4,5-dihydro-2H-pyrazolo[4,3-b]pyridin-7-y)-2,5-diethylpiperazin-1-yl)ethyl)benzonitrile]
- IC50 (DGKζ): 285 nM
- IC50 (DGKα): < 23.3 nM

SMILES: CC[C@H]1CN(C(C)c2ccc(CN3CCS(=O)(=O)CC3)cc2)[C@H](CC)CN1c1cc(=O)n(C)c2cn(CC#N)nc12 (stereo partly drawn) [Compound A192, 2-(7-((2S,5R)-4-(1-(4-((1,1-dioxidothiomorpholino)methyl)phenyl)ethyl)-2,5-diethylpiperazin-1-yl)-4-methyl-5-oxo-4,5-dihydro-2H-pyrazolo[4,3-b]pyridin-2-yl)acetonitrile]
- IC50 (DGKζ): 579 nM
- IC50 (DGKα): 729 nM

SMILES: CC[C@H]1CN(C(C)c2cc3c(cn2)OCC3)[C@H](CC)CN1c1cc(=O)n(C)c2cn(CC#N)nc12 (stereo partly drawn) [Compound A196, 2-(7-((2S,5R)-4-(1-(2,3-dihydrofuro[2,3-c]pyridin-5-yl)ethyl)-2,5-diethylpiperazin-1-yl)-4-methyl-5-oxo-4,5-dihydro-2H-pyrazolo[4,3-b]pyridin-2-yl)acetonitrile]
- IC50 (DGKζ): 552 nM
- IC50 (DGKα): 1020 nM

SMILES: CC[C@H]1CN(C(C)c2ccc3c(c2)OC(F)(F)O3)[C@H](CC)CN1c1cc(=O)n(C)c2cn(CC#N)nc12 (stereo partly drawn) [Compound A197, 2-(7-((2S,5R)-4-(1-(2,2-difluorobenzo[d][1,3]dioxol-5-yl)ethyl)-2,5-diethylpiperazin-1-yl)-4-methyl-5-oxo-4,5-dihydro-2H-pyrazolo[4,3-b]pyridin-2-yl)acetonitrile]
- IC50 (DGKζ): 252 nM
- IC50 (DGKα): 711 nM

SMILES: CC[C@H]1CN(C(C)c2ccc(CS(C)(=O)=O)cc2)[C@H](CC)CN1c1cc(=O)n(C)c2cn(CC#N)nc12 (stereo partly drawn) [Compound A198, 2-(7-((2S,5R)-2,5-diethyl-4-(1-(4-((methylsulfonyl)methyl)phenyl)ethyl)piperazin-1-yl)-4-methyl-5-oxo-4,5-dihydro-2H-pyrazolo[4,3-b]pyridin-2-yl)acetonitrile]
- IC50 (DGKζ): 5560 nM
- IC50 (DGKα): 91 nM

SMILES: CC[C@H]1CN(C(C)c2ccc(C(C)(F)F)nc2)[C@H](CC)CN1c1cc(=O)n(C)c2cn(CC#N)nc12 (stereo partly drawn) [Compound A199, 2-(7-((2S,5R)-4-(1-(6-(1,1-difluoroethyl)pyridin-3-yl)ethyl)-2,5-diethylpiperazin-1-yl)-4-methyl-5-oxo-4,5-dihydro-2H-pyrazolo[4,3-b]pyridin-2-yl)acetonitrile]
- IC50 (DGKζ): 112 nM
- IC50 (DGKα): 2170 nM

SMILES: CC#CCn1cc2c(n1)c(N1C[C@@H](CC)N(C(C)c3ccc4c(n3)OCC4)C[C@@H]1C)cc(=O)n2C (stereo partly drawn) [Compound A200, 2-(but-2-yn-1-yl)-7-((2S,5R)-4-(1-(2,3-dihydrofuro[2,3-b]pyridin-6-yl)ethyl)-5-ethyl-2-methylpiperazin-1-yl)-4-methyl-2,4-dihydro-5H-pyrazolo[4,3-b]pyridin-5-one]
- IC50 (DGKζ): 991 nM
- IC50 (DGKα): < 23.3 nM

SMILES: CC[C@H]1CN(C(C)c2ccc(OC3CC3)cn2)[C@H](CC)CN1c1cc(=O)n(C)c2cn(CC#N)nc12 (stereo partly drawn) [Compound A201, 2-(7-((2S,5R)-4-(1-(5-cyclopropoxypyridin-2-yl)ethyl)-2,5-diethylpiperazin-1-yl)-4-methyl-5-oxo-4,5-dihydro-2H-pyrazolo[4,3-b]pyridin-2-yl)acetonitrile]
- IC50 (DGKζ): 123 nM
- IC50 (DGKα): 43 nM

SMILES: CC[C@H]1CN(C(C)c2ccc(C(=O)N3CCC(OC)C3)cc2)[C@H](CC)CN1c1cc(=O)n(C)c2cn(CC#N)nc12 (stereo partly drawn) [Compound A202, 2-(7-((2S,5R)-2,5-diethyl-4-(1-(4-(3-methoxypyrrolidine-1-carbonyl)phenyl)ethyl)piperazin-1-yl)-4-methyl-5-oxo-4,5-dihydro-2H-pyrazolo[4,3-b]pyridin-2-yl)acetonitrile]
- IC50 (DGKζ): 3210 nM
- IC50 (DGKα): 352 nM

SMILES: CC[C@H]1CN(C(C)c2ccc(COC)cc2)[C@H](CC)CN1c1cc(=O)n(C)c2cn(CC#N)nc12 (stereo partly drawn) [Compound A205, 2-(7-((2S,5R)-2,5-diethyl-4-(1-(4-(methoxymethyl)phenyl)ethyl)piperazin-1-yl)-4-methyl-5-oxo-4,5-dihydro-2H-pyrazolo[4,3-b]pyridin-2-yl)acetonitrile]
- IC50 (DGKζ): 142 nM
- IC50 (DGKα): 215 nM
